Molecular target: T1, EcoR124I holoenzyme (Escherichia coli, UniProt P10486)
T1 sequence (P10486 1-1038): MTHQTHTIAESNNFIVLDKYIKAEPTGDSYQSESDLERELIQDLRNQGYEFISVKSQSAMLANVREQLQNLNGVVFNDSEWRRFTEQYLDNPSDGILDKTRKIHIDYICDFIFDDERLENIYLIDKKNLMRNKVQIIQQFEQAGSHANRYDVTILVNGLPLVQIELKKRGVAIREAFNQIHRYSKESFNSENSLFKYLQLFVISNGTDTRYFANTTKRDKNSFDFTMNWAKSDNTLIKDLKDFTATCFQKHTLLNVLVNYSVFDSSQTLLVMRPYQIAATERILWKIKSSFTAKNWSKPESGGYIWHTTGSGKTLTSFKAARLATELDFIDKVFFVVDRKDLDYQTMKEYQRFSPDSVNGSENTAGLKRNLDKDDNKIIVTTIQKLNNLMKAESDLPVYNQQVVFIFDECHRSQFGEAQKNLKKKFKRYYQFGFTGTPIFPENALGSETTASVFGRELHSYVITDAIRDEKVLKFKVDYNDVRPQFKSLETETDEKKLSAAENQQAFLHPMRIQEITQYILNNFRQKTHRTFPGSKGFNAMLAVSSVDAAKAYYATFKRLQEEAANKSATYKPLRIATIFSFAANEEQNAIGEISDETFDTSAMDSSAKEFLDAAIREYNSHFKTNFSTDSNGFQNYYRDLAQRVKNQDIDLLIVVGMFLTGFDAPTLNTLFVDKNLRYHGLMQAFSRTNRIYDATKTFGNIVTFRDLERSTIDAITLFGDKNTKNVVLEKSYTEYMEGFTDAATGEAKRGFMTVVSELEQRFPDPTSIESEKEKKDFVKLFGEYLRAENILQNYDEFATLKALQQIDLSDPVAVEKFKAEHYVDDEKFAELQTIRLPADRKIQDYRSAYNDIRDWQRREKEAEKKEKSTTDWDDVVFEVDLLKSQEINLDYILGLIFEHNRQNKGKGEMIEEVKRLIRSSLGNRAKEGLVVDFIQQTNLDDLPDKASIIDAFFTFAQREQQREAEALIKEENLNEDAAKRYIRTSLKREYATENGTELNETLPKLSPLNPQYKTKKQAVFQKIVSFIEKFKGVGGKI
T1 sequence (P10484 1-520 partner): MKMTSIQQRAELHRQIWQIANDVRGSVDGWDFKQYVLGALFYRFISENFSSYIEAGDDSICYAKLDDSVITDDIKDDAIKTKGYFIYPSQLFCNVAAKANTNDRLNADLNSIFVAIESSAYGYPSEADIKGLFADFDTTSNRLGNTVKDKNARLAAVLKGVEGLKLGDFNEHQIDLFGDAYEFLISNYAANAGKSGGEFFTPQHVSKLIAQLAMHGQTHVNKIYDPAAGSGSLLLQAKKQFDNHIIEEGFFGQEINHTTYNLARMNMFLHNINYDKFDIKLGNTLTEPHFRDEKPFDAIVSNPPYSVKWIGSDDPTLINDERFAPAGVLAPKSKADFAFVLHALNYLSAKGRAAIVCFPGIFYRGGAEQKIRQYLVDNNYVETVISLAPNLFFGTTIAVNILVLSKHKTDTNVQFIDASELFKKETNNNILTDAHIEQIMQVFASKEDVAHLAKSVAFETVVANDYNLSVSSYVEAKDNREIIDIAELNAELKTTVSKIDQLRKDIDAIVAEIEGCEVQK
T1 sequence (P10485 1-404 partner): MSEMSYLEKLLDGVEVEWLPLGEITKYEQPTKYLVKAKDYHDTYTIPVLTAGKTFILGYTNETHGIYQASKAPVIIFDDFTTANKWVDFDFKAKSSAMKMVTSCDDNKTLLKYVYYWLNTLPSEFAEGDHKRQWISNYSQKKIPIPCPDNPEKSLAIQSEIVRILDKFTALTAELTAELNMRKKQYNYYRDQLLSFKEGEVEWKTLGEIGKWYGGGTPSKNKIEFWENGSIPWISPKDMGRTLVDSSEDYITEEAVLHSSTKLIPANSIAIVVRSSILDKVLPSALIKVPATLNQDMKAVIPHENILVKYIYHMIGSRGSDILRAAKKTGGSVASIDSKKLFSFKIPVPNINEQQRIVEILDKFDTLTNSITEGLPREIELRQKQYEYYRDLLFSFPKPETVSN
Conditions: 1 mM ATP, 5 mM Mg(OAc)2, negatively supercoiled R+- or 2R+-DNA, pH 7.5, 25 °C

Nc1ncnc2c1ncn2[C@@H]1O[C@H](COP(=O)(O)OP(=O)(O)OP(=O)(O)O)[C@@H](O)[C@H]1O [ATP]
continuous coupled spectrophotometric ATPase assay: as total protein concentration increases, the initial rates of ATP hydrolysis increase accordingly

From paper PMC2691833 (Nucleic Acids Research, 2009)
